Assay type in all cases: cell-based, human
Assay [1] concerns MCF-7 cells. The assay is described as follows: Cell growth (CCK-8). The following applies: 75 μmol/l peptide, MCF-7, CCK-8; means of three experiments (Fig. 1b).
Procedure: (§1) Cell growth was analyzed using 2-(2-methoxy-4-nitrophenyl)-3-(4-nitroph enyl)-5-(2,4-disulfophenyl)-2H-tetrazolium, monosodium salt, and the Cell Counting Kit-8 (CCK-8, Sigma). […] After culturing for another 48 hr, cell growth was analyzed by CCK-8 and the optical density was detected at 450 nm. The growth ratio was normalized to the cells without treatment.
In a further assay the test system is MDA-MB-231 cells. The assay is described as follows: Cell growth (CCK-8). The following applies: 75 μmol/l peptide, MDA-MB-231, CCK-8; means of three experiments (Fig. 1b).
Assay [2] deals with MCF-7 cells. The assay is described as follows: Cell cycle analysis, sub-G1 (propidium iodide, flow cytometry). The note with it: MCF-7, 100 μmol/l peptide, flow cytometry (Fig. 3a). As to the method:
MCF-7 and MDA-MB-231 cells were plated in 6-well plates for 24 hr, and the medium was replaced with fresh culture medium containing 100 μmol/l peptide. After incubation for 24 hr, the cells were harvested by trypsinization and then fixed with 70% 4 °C ethanol. Intracellular DNA was stained with […] propidium iodide in the dark for 30 min at room temperature, and the percentages of sub-G1 cells were determined by flow cytometry (BD LSRII analyzer; BD Biosciences).

Procedure for MDA-MB-231 cells: as §1

Consider “H-TAT-NLS-GGGDPELCATDEMIPFKDEG-NH2 [TAT-NLS-BLBD-3]”, for which the cell growth entry in the assay on MCF-7 cells [1] and with MDA-MB-231 cells was “inhibited the growth” throughout.

Regarding “H-TAT-NLS-GTDEAAAA-NH2 [TAT-NLS-BLBD-6m, mutated version of TAT-NLS-BLBD-6 (GTDEAAAA), used as control peptide]”, the “sub-G1 phase region (pro-apoptotic effect)” value in the assay on MCF-7 cells [2] worked out at 7.35%. The cell growth result with MCF-7 cells [1] and in the assay with MDA-MB-231 cells was “did not affect the growth” in each case.

These data come from article PMC4707489, “A novel cell-penetrating peptide suppresses breast tumorigenesis by inhibiting β-catenin/LEF-1 signaling” (Scientific Reports, 2016).
